Measurements taken from patent US9345716B2, “Protein free surfactant composition for pulmonary diseases and a process for preparing the same” (INDIAN INSTITUTE OF TECHNOLOGY, BOMBAY, priority 2010, dated 2016).
Where “and” joins values, the source holds several entries; their conditions need not be identical. Equal values may be shown once.

Legend:
[1] = Airway patency in a capillary surfactometer; conditions: 37 C, graded concentrations of albumin
Procedure: This is evaluated in a capillary surfactometer at 37 C at a concentration of 1 mg/ml of the surfactant in the presence of 0.5 mg/ml of albumin.
FIG. 2 compares the airway patency of DPPC:Eugenol 5:3 (present invention) at a concentration of 1 mg/ml with that of DPPC:clove oil 5:3 1 mg/ml in the absence and presence of 0.5 mg/ml of albumin in a capillary surfactometer at 37 C.

[2] = Laurdan fluorescence ratio (lamellar/non-lamellar phase state); assay type: physicochemical; conditions: for Ratio of Laurdan fluorescence 360/390: 360 and 390 nm; for Ratio of Laurdan fluorescence 360/490: 360 and 490 nm
Description: (§1) Laurdan (6-dodecanoyl-2-dimethylaminonaphthalene) is a fluorescent membrane probe that has the advantage of displaying spectral sensitivity to the phospholipids phase state.
as §1

[3] = Differential scanning calorimetry: energy required by liposomes to reach the interface; assay type: physicochemical; conditions: liposomes 1 mg/ml
Procedure: Differential scanning calorimetry (DSC) was also used to study the interaction of bioactive compounds with model lipid bilayers such as DPPC. The experiments were performed at temperature ranging from 35° C. to 115° C. The rate of heating was 3° C./min and the system was allowed to cool to about 35° C. before the next experiment. The samples studied in the order of DSC results were,
Differential scanning calorimetry (DSC) was used to study the interaction of bioactive compounds with model lipid bilayers such as DPPC. The experiments were performed at temperature ranging from 35° C. to 115° C. The rate of heating was 3° C./min and the system was allowed to cool to about 35° C. before the next experiment. […] The lower the energy required by the nanovesicles, better is the rate of adsorption. […] On addition of HCl (as an acid inhibitor), there was an increase in the energy (1743 J/g) of the DPPC liposomes which affected the adsorption (59.89±2.22mN/m) of these acid-treated liposomes. The energy barrier prevented the rapid entry of these liposomes at the interface thereby affecting adsorption.

[4] = Surfactant adsorption to air-liquid interface in a langmuir trough; assay type: physicochemical
Procedure: Salbutamol or dexamethasone were added in a ratio of 1 part of surfactant to 0.1 parts of drug while gentamycin was added in a ratio of 1 part of surfactant to 0.2 parts of drug by weight.

[5] = Atomic force microscopy of surfactant films in presence of albumin; assay type: physicochemical; conditions: in the presence of albumin
Description: The invented surfactant of DPPC: eugenol 5:3 forms closely packed structures having nanodomains in the presence of albumin. The DPPC: eugenol surfactant in the absence and presence of albumin was compared with that of DPPC alone in the absence and presence of albumin, using atomic force microscopy (AFM). AFM images of DPPC in the presence of albumin and DPPC: eugenol 5:3 in the presence of albumin are depicted in FIGS. 11 and 13 respectively and the roughness of the structures are depicted in FIGS. 12 and 14. […] The surface roughness of DPPC in the presence of albumin is depicted in FIG. 12. It confirms large aggregates with roughness of 47.47 nm. On the other hand, in the case of DPPC: eugenol in the presence of albumin, the surface roughness is only 8.9 nm as depicted in FIG. 14. The formation of nanodomains of 80-90 nm with surface roughness of 8.9 nm allows a closely packed organization which accounts for the improved surface activity of the surfactant in the presence of albumin.

| Ratio of Laurdan fluorescence 360/390 ([2]; in the presence of albumin) | Ratio of Laurdan fluorescence 360/390 ([2]; no albumin) | Ratio of Laurdan fluorescence 360/490 ([2]; in the presence of albumin) | Ratio of Laurdan fluorescence 360/490 ([2]; no albumin) | Energy required for the liposomes to reach the interface (DSC) ([3]; HCl 3.1×10^−1 moles/dm^3) | Energy required for the liposomes to reach the interface (DSC) ([3]; acid-untreated) | Adsorption (rate of adsorption, surface tension) ([4]; acid-treated, HCl 3.1×10^−1 moles/dm^3) | Adsorption (rate of adsorption, surface tension) ([4]; acid-untreated, liposomes 1 mg/ml) | Domain size (AFM) [5] | Surface roughness (AFM) [5] | SMILES | Airway patency in presence of graded amounts of albumin [1] |
| --- | --- | --- | --- | --- | --- | --- | --- | --- | --- | --- | --- |
| – | – | – | – | – | – | – | – | – | – | C=CCc1ccc(O)c(OC)c1 [eugenol] | 0% |
| 1.98 and 1.99 | 2.6 and 2.615 | 1.21 and 1.215 | 2.41 | 1743 J/g | 1325 J/g | 59.89±2.22 mN/m | 44.66±1.71 mN/m | 540-550 nm | 47.47 nm | CCCCCCCCCCCCCCCC(=O)OC[C@H](COP(=O)([O-])OCC[N+](C)(C)C)OC(=O)CCCCCCCCCCCCCCC [DPPC, dipalmitoylphosphatidylcholine] | 0% |
